Read-outs that look alike come from different tables or passages of the source.
Assays:
[1] = Plasma concentration after oral administration of linaprazan glurate; format: in vivo, human
gastric acid production [2] = conditions: cited from earlier work
gastric acid production [3] = conditions: cited from earlier work; remark: listed apart in the source
[4] = Dynamic vapour sorption (DVS) analysis, hygroscopicity / water content; format: physicochemical
Procedure: Analyses were performed on an SMS DVS-1 instrument.
(§1) Method 1: A few mg of the substance was added into an Al pan and exposed to stepwise RH changes during two identical consecutive cycles according to 0-10-20-30-40-50-60-70-80-90-80-70-60-50-40-30-20-10-0% RH using open loop mode. The experiments were performed using a gas flow rate of 200 ml/min and at 25° C. The dm/dt criteria applied were 0.001 weight-%/min during a 5-minutes window, with a maximum allowed time of 360 minutes and a minimum allowed time of 10 minutes for all steps, except for the first stage which was set to a 12-hours fix time.
as §1, with “2:” for “1:”, “steps.” for “steps, except for the first stage which was set to a 12-hours fix time.”
as §1, with “3:” for “1:”, “6-hours” for “12-hours”
The hygroscopicity of sample 1 of Form A (obtained from a slurry in 2-propanol) was investigated using method 1. […]
For sample 2 of Form A (obtained from a slurry in acetone), a TGA-dried sample was investigated using method 2. […] In the second cycle, “pure” water absorption and desorption is recorded. […]

[5] = cited from earlier work
[6] = XRPD check of solid form after TGA or DVS; format: physicochemical
Procedure: Analyses were performed on a PanAlytical X'Pert Pro diffractometer equipped with a Cu-anode (45 kV, 40 mA), a Kα-1 Johansson monochromator (1.540598 Å) and a Pixcel detector. The 2-theta range was 2-35°, using a step size of 0.013° and a scan speed of 0.10°/s (“6 minutes scan”) or 0.03°/s (“20 minutes scan”). Slow spinning sample holders were used. The samples were smeared out on zero background wafers of Si, producing a flat powdered surface. The measurements were performed using a programmable incident divergency slit.
Method 1: A few mg of sample was gently charged into open Pt-pans and analysed by weight in a flow of dry nitrogen gas (20 mL/min), to ensure an inert atmosphere, from 25 to 140° C. using a continuous scan speed of 10° C./min, followed by an isothermal step at 140° C. for 60 minutes (ended manually if the drying process was completed before 60 minutes).
as §1, with “2:” for “1:”, “steps.” for “steps, except for the first stage which was set to a 12-hours fix time.”

[7] = up to 24 hours
Procedure: The solubility of Form A in Fed State Simulated Gastric Fluid (FEDGAS) mid stage, second version of Fasted State Simulated Intestinal Fluid (FaSSIF-V2) and second version of Fed State Simulated Intestinal Fluid (FeSSIF-V2) was studied.
To 90 mL of Milli Q water were added 139 mg of NaOH, 222 mg of maleic acid and 401 mg of NaCl and the resulting mixture was stirred until fully dissolved. The pH was adjusted to 6.5 with 1 M HCl and 1 M NaOH, and made up to 100 mL with Milli Q water. 179 mg of FaSSIF-V2 (Biorelevant, batch V2FAS-1020-A) was mixed with the prepared 100 ml of buffer, stirred until fully dissolved and equilibrated at RT for 1 hour before use.
To 90 ml of Milli Q water were added 327 mg of NaOH, 639 mg of maleic acid and 733 mg of NaCl and the resulting mixture was stirred until fully dissolved. The pH was adjusted to 5.8 with 1 M HCl and 1 M NaOH, and made up to 100 mL with Milli Q water. 976 mg of FeSSIF-V2 (Biorelevant, batch V2FES-1020-A) was mixed with the prepared 100 ml of buffer, stirred until fully dissolved and equilibrated at RT for 1 hour before use. […]
Saturated solutions were prepared in 4 ml vials by adding fixed weights (excess amounts) of Form A to 2 mL of each of the different buffer solutions. […] Concentrations were calculated from a calibration curve based on 7 calibration standards (stock solutions of 100 and 250 μg/mL, and serial dilutions thereof).

Compound: Cc1cccc(C)c1CNc1cc(C(=O)NCCO)cn2c(C)c(C)nc12 [linaprazan]
- concentration at 22 h ([1]; human, plasma, oral, after 22 hours, estimated from Phase I studies of linaprazan glurate, read-out: minimal plasma concentration (Cmin) of linaprazan required to maintain intra-gastric pH above 4 for 24 hours): ≥ 240 nM
- onset of action (gastric acid production [2]; Phase I and II studies): fast onset of action and full effect at first dose
- tolerability (gastric acid production [2]; Phase I and II studies): well tolerated
- duration of acid inhibition (gastric acid production [2]; in vivo): too short duration of acid inhibition
- elimination (gastric acid production [2]; in vivo): quickly eliminated from the body

Compound: Cc1cccc(C)c1CNc1cc(C(=O)NCCOC(=O)CCCC(=O)O)cn2c(C)c(C)nc12 [linaprazan glurate, 5-{2-[({8-[(2,6-dimethylbenzyl)amino]-2,3-dimethylimidazo[1,2-a]pyridine-6-yl}carbonyl)-amino]ethoxy}-5-oxopentanoic acid]
- metabolism following absorption into the blood stream ([1]; in vivo): quickly metabolized into linaprazan
- plasma concentration ([1]; in vivo): only very low and difficult to determine
- control of gastric acid production compared to linaprazan (gastric acid production [3]; human, in vivo): total control of the gastric acid production for a longer time
- half-life in the body compared to linaprazan (gastric acid production [3]; human, in vivo): longer half-life in the body
- time for which intragastric acidity is maintained above pH 4 (gastric acid production [3]; single dose, clinical Phase I study): 24 hours

Compound: CS(=O)(=O)O.Cc1cccc(C)c1CNc1cc(C(=O)NCCOC(=O)CCCC(=O)O)cn2c(C)c(C)nc12 [Form B]
- water content ([4]; at 80% RH): about 3.4%

Compound: Cc1cccc(C)c1CNc1cc(C(=O)NCCOC(=O)CCCC(=O)O)cn2c(C)c(C)nc12 [Form A (free base)]
- solubility in water ([5]; pH 1): only slightly soluble
- solubility in water ([5]; pH 6.8): practically insoluble

Compound: CS(=O)(=O)O.Cc1cccc(C)c1CNc1cc(C(=O)NCCOC(=O)CCCC(=O)O)cn2c(C)c(C)nc12 [Form A]
- solid form after the TGA experiment (XRPD) ([6]; after heating 25 to 140° C., TGA method 1): this form remained
- solid form after the DVS-analysis (XRPD) ([6]; after two cycles 0-90% RH, 25° C.): this form remained
- solubility in FEDGAS relative to FaSSIF-V2 ([7]; FEDGAS mid stage pH 4.5 vs FaSSIF-V2 pH 6.5, 37° C.): about 20 times higher
- solubility in FEDGAS relative to FeSSIF-V2 ([7]; FEDGAS mid stage pH 4.5 vs FeSSIF-V2 pH 5.8, 37° C.): about 7 times higher
- water uptake with relative humidity ([4]; 0 to 90% RH, 25° C.): increases almost linearly with increasing relative humidity
- stability at relative humidity ([4]; relative humidity up to 90%, 25° C.): stable
